One assay relates to KCL22/SR. Kind of assay: Cytotoxicity propidium iodide assay, KCL22/SR. In kind it is cell-based. Particulars: Homo sapiens, KCL-22; KCL22/SR (CML), 48 hours treatment; read-out: IC50 Values in μM, C6e. As for the experimental part: (§1) The assay was designed as in the reference, Anticancer Drugs, 2002, 13, 1-8, the disclosure of which is incorporated herein by reference for the teaching of the assay.
(§2) Cells from cell lines (ATCC) as mentioned in the table given below were seeded at a density of 3000 cells/well in a white opaque 96-well plate. Following incubation at 37° C./5% CO2 for a period of 18-24 hours, the cells were treated with various concentrations (stock solution was prepared in DMSO and subsequent dilutions were made in media as per ATCC guidelines) of the compounds of the present invention for a period of 48 hours. At the end of treatment, the culture medium was discarded, the cells were washed with 1×PBS and 200 μL of […] propidium iodide was added to each well. The plates were frozen at 70° C. overnight. For analysis, the plates were warmed to RT, allowed to thaw and were read in PoleStar fluorimeter with the fluorescence setting. The percentage of viable cells in the non-treated set of wells was considered to be 100 and the percentage viability following treatment was calculated accordingly. IC50 values were calculated from graphs plotted using these percentages. IC50 values for certain compounds of present invention are depicted in Table 1 and % Inhibition of certain compounds of present invention are depicted in Table 2.

The next assay concerns KU812/SR. Briefly: Cytotoxicity propidium iodide assay, KU812/SR. In kind it is cell-based. The conditions noted are these: Homo sapiens; KU812/SR (CML), 48 hours treatment; read-out: IC50 Values in μM, C6c. As for the experimental part: as §1, §2
The subject of the next assay is KCL22. Kind of assay: Cytotoxicity propidium iodide assay, KCL22. In kind it is cell-based. Particulars: Homo sapiens, KCL-22; KCL22 (CML), 48 hours treatment; read-out: IC50 Values in μM, C6f. As for the experimental part:
as §1
as §2, with “The plates were frozen at 70° C. overnight.” left out

For the next assay, the system named is T315I. Kind of assay: Cytotoxicity propidium iodide assay, T315I. In kind it is cell-based. The conditions noted are these: T315I (CML), 48 hours treatment; read-out: IC50 Values in μM, C6b. As for the experimental part: as §1, §2
Another assay deals with PC3. Briefly: Cytotoxicity propidium iodide assay, PC3. In kind it is cell-based, human. Particulars: Homo sapiens, PC-3; PC3 (prostate), 48 hours treatment; read-out: IC50 Values in μM, C2a. An outline of the steps:
(§3)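 Read-out: propidium iodide fluorescence after freeze-thaw, with untreated wells set to 100% viability and IC50 taken from the plotted percentages. Cells (3000/well) were pre-incubated 18-24 h, then treated 48 h with a range of compound concentrations.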

Another assay deals with A2780. Kind of assay: Cytotoxicity propidium iodide assay, A2780. In kind it is cell-based. Particulars: Homo sapiens; A2780 (ovarian), 48 hours treatment; read-out: IC50 Values in μM, C1a. An outline of the steps:
as §3

The test system of the next assay is K562. Kind of assay: Cytotoxicity propidium iodide assay, K562. In kind it is cell-based. The conditions noted are these: Homo sapiens; K562 (CML), 48 hours treatment; read-out: IC50 Values in μM, C6a. As for the experimental part: as §1, §2
Another assay concerns PANC 1. Kind of assay: Cytotoxicity propidium iodide assay, PANC 1. In kind it is cell-based. Particulars: Homo sapiens; PANC 1 (pancreatic), 48 hours treatment; read-out: IC50 Values in μM, C4a. As for the experimental part: as §1, §2
The test system of the next assay is MDA MB 231. Briefly: Cytotoxicity propidium iodide assay, MDA MB 231. In kind it is cell-based. The conditions noted are these: Homo sapiens; MDA MB 231 (breast), 48 hours treatment; read-out: IC50 Values in μM, C3a. As for the experimental part: as §1
as §2, with “The plates were frozen at 70° C. overnight.” left out

Another assay has as its system MDA MB 468. Briefly: Cytotoxicity propidium iodide assay, MDA MB 468. In kind it is cell-based. The conditions noted are these: Homo sapiens; MDA MB 468 (breast), 48 hours treatment; read-out: IC50 Values in μM, C3b. As for the experimental part: as §1, §2
The next assay relates to MCF7. Kind of assay: Cytotoxicity propidium iodide assay, MCF7. In kind it is cell-based. Particulars: Homo sapiens; MCF7 (breast), 48 hours treatment; read-out: IC50 Values in μM, C3d. As for the experimental part:
as §1, §2

Another assay has as its system AsPC 1. Kind of assay: Cytotoxicity propidium iodide assay, AsPC 1. In kind it is cell-based. Particulars: Homo sapiens, ASPC1; AsPC 1 (pancreatic), 48 hours treatment; read-out: IC50 Values in μM, C4b. As for the experimental part: as §1
as §2, with “The plates were frozen at 70° C. overnight.” left out

The test system of the next assay is BxPC3. Briefly: Cytotoxicity propidium iodide assay, BxPC3. In kind it is cell-based. Particulars: Homo sapiens, BXPC-3; BxPC3 (pancreatic), 48 hours treatment; read-out: IC50 Values in μM, C4c. As for the experimental part: as §1, §2
For another assay, the system named is BT 549. Kind of assay: Cytotoxicity propidium iodide assay, BT 549. In kind it is cell-based. Particulars: Homo sapiens; BT 549 (breast), 48 hours treatment; read-out: IC50 Values in μM, C3c. As for the experimental part: as §1, §2
A further assay relates to KU812. Kind of assay: Cytotoxicity propidium iodide assay, KU812. In kind it is cell-based. The conditions noted are these: Homo sapiens; KU812 (CML), 48 hours treatment; read-out: IC50 Values in μM, C6d. As for the experimental part: as §1, §2

What is called IC50 is the point on the concentration scale where inhibition reaches its midpoint. Regarding `Cn1c(=O)n(-c2ccc(C(C)(C)C#N)nc2)c2c3cc(-c4cccnc4)ccc3ncc21` [Example 1, 2-Methyl-2-(5-(3-methyl-2-oxo-8-(pyridin-3-yl)-2,3-dihydro-1H-imidazo[4,5-c]quinolin-1-yl)pyridin-2-yl)propanenitrile], the IC50 worked out at 0.62 µM in the assay on KCL22/SR; 0.96 µM in the assay on KU812/SR; 1.18 µM in the assay on KCL22; 3.3 µM in the assay with T315I; 0.22 µM with PC3; 0.4 µM in the assay with A2780. In addition, in the assay on K562, the IC50 is 0.9 µM.
For `COc1ccc(-n2c(=O)n(C)c3cnc4ccc(-c5cnc6ccccc6c5)cc4c32)cn1` [Example 20, 1-(6-Methoxypyridin-3-yl)-3-methyl-8-(quinolin-3-yl)-1H-imidazo[4,5-c]quinolin-2(3H)-one], the concentration for half-maximal inhibition (IC50) with KCL22/SR amounted to 1.09 µM; in the assay with KU812/SR, 5.44 µM; with PANC 1, 0.25 µM; in the assay on KCL22, 2.86 µM; in the assay on T315I, 1.96 µM; in the assay with MDA MB 231 it was 0.37 µM. The IC50 with MDA MB 468 is 0.47 µM; with MCF7, 0.55 µM; with AsPC 1, 0.4 µM; with BxPC3, 0.45 µM; in the assay on PC3, 0.27 µM; with BT 549, 1 µM. Also, the IC50 turned out to be 0.07 µM with A2780, 0.1 µM with K562 and 1.99 µM in the assay on KU812.
Turning to `Cn1c(=O)n(CCN2CCOCC2)c2c3cc(-c4cnc5ccccc5c4)ccc3ncc21` [Example 70, 3-Methyl-1-(2-morpholinoethyl)-8-(quinolin-3-yl)-1H-imidazo[4,5-c]quinolin-2(3H)-one], the IC50 in the assay with KCL22/SR amounted to 1.57 µM; in the assay with KU812/SR, 3.38 µM; with PANC 1, 1 µM; with KCL22, 2.17 µM; in the assay with T315I it was 2.56 µM; in the assay with MDA MB 231, 0.7 µM. The IC50 in the assay on MDA MB 468 came out at 1.1 µM; in the assay with MCF7, 0.7 µM; in the assay with AsPC 1 it was 1.6 µM; with BxPC3, 0.7 µM; in the assay with PC3, 0.9 µM; in the assay with BT 549 it was 2.1 µM. Also, the concentration for half-maximal inhibition (IC50) was 0.3 µM with A2780, 0.7 µM with K562 and 4 µM in the assay with KU812.
